Laboratory results from US9072732B2 (priority 2010, dated 2015).

Assays:
Hep G2 cells = settings: niacin 0.5 mM 24 h, then ethanol 48 h in presence or absence of niacin
Excerpt: Cellular fat accumulation was quantitated by nile red O staining and by measuring fluorescence intensity.

[1] = system: high-fat-induced NAFLD in rats; assay: High-fat diet-induced NAFLD model in rats; settings: 4 weeks

O=C(O)c1cccnc1 [niacin, nicotinic acid]
alcohol-induced fat accumulation (Hep G2 cells): significantly inhibited | serum cholesterol levels ([1]; niacin 0.5% and 1% in high-fat diet, compared to rats fed high-fat diet): significantly decreased | body weight of rats ([1]; niacin 0.5% or 1% in high-fat diet, compared to high-fat fed rats): no effect | serum triglyceride levels ([1]; niacin in high-fat diet, compared to rats fed high-fat diet): significantly decreased
